Measurements: PubChem BioAssay AID1963830 (Molecular Pharmacology Branch, DTP, NCI, 2024)

System: 922993-354-T-J3-PDC complex spheroid viability
Test: Anticancer human tumor 922993-354-T-J3-PDC patient-derived endometrial carcinoma cell line growth inhibition [POLQ]
Details: for IC50: curve of first compound; for viability, T/C: stronger effect = lower value
In short: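 Patient-derived tumour cells were co-cultured with HUVEC and mesenchymal stem cells as multicellular spheroids at 37 °C. They were treated with POLQ inhibitors (novobiocin, ART-558, RP6685) alone or combined with other agents. Top concentrations were at or near clinical Cmax (otherwise 10 microM; SN-38 at 1 microM), decreasing in half-log steps.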

[1] = second compound 0.0316 µM, first compound 0.0316 µM
[2] = second compound 0.0316 µM, first compound 0.1 µM
[3] = second compound 0.0316 µM, first compound 0.316 µM
[4] = second compound 0.0316 µM, first compound 1 µM
[5] = second compound 0.0316 µM, first compound 3.16 µM
[6] = second compound 0.0316 µM, first compound 10 µM
[7] = second compound 0.1 µM, first compound 0.0316 µM
[8] = second compound 0.1 µM, first compound 0.1 µM
[9] = second compound 0.1 µM, first compound 0.316 µM
[10] = second compound 0.1 µM, first compound 1 µM
[11] = second compound 0.1 µM, first compound 3.16 µM
[12] = second compound 0.1 µM, first compound 10 µM
[13] = second compound 0.316 µM, first compound 0.0316 µM
[14] = second compound 0.316 µM, first compound 0.1 µM
[15] = second compound 0.316 µM, first compound 0.316 µM
[16] = second compound 0.316 µM, first compound 1 µM
[17] = second compound 0.316 µM, first compound 3.16 µM
[18] = second compound 0.316 µM, first compound 10 µM
[19] = second compound 1 µM, first compound 0.0316 µM
[20] = second compound 1 µM, first compound 0.1 µM
[21] = second compound 1 µM, first compound 0.316 µM
[22] = second compound 1 µM, first compound 1 µM
[23] = second compound 1 µM, first compound 3.16 µM
[24] = second compound 1 µM, first compound 10 µM
[25] = second compound 3.16 µM, first compound 0.0316 µM
[26] = second compound 3.16 µM, first compound 0.1 µM
[27] = second compound 3.16 µM, first compound 0.316 µM
[28] = second compound 3.16 µM, first compound 1 µM
[29] = second compound 3.16 µM, first compound 3.16 µM
[30] = second compound 3.16 µM, first compound 10 µM
[31] = second compound 10 µM, first compound 0.0316 µM
[32] = second compound 10 µM, first compound 0.1 µM
[33] = second compound 10 µM, first compound 0.316 µM
[34] = second compound 10 µM, first compound 1 µM
[35] = second compound 10 µM, first compound 3.16 µM
[36] = second compound 10 µM, first compound 10 µM
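Also: spheroids exposed to the agents for one week.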
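For viability, T/C in this document: 100% = DMSO vehicle control wells.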

Structure (SMILES): CNCc1ccc(-c2[nH]c3cc(F)cc4c3c2CCNC4=O)cc1 + COC1C(OC(N)=O)C(O)C(Oc2ccc3c(O)c(NC(=O)c4ccc(O)c(CC=C(C)C)c4)c(=O)oc3c2C)OC1(C)C
- IC50 (second compound 0.0316 µM): > 10 µM
- IC50 (second compound 0.1 µM): > 10 µM
- IC50 (second compound 0.316 µM): > 10 µM
- IC50 (second compound 1 µM): > 10 µM
- IC50 (second compound 3.16 µM): > 10 µM
- IC50 (second compound 10 µM): > 10 µM
- viability, T/C [1]: 104%
- viability, T/C [2]: 100%
- viability, T/C [3]: 98.3%
- viability, T/C [4]: 109%
- viability, T/C [5]: 105%
- viability, T/C [6]: 85.4%
- viability, T/C [7]: 107%
- viability, T/C [8]: 106%
- viability, T/C [9]: 94.3%
- viability, T/C [10]: 90%
- viability, T/C [11]: 91.5%
- viability, T/C [12]: 78.6%
- viability, T/C [13]: 102%
- viability, T/C [14]: 103%
- viability, T/C [15]: 108%
- viability, T/C [16]: 90.3%
- viability, T/C [17]: 85.8%
- viability, T/C [18]: 81.3%
- viability, T/C [19]: 102%
- viability, T/C [20]: 101%
- viability, T/C [21]: 98.2%
- viability, T/C [22]: 107%
- viability, T/C [23]: 89%
- viability, T/C [24]: 77.4%
- viability, T/C [25]: 95.5%
- viability, T/C [26]: 89.9%
- viability, T/C [27]: 86.6%
- viability, T/C [28]: 79%
- viability, T/C [29]: 108%
- viability, T/C [30]: 70.1%
- viability, T/C [31]: 95.4%
- viability, T/C [32]: 80.8%
- viability, T/C [33]: 80.9%
- viability, T/C [34]: 73.1%
- viability, T/C [35]: 86.7%
- viability, T/C [36]: 78.8%

Structure (SMILES): CC[C@@]1(O)C(=O)OCc2c1cc1n(c2=O)Cc2cc3c(CN(C)C)c(O)ccc3nc2-1 + Cc1cccc(N(C)C(=O)C2C(O)CCN2c2nc(C)cc(C(F)(F)F)c2C#N)c1
- IC50 (second compound 0.0316 µM): 0.0906 µM
- IC50 (second compound 0.1 µM): > 0.1 µM
- IC50 (second compound 0.316 µM): > 0.1 µM
- IC50 (second compound 1 µM): > 0.1 µM
- IC50 (second compound 3.16 µM): > 0.1 µM
- IC50 (second compound 10 µM): 0.0485 µM
- viability, T/C (second compound 0.0316 µM, first compound 0.000316 µM): 108%
- viability, T/C (second compound 0.0316 µM, first compound 0.001 µM): 100%
- viability, T/C (second compound 0.0316 µM, first compound 0.00316 µM): 104%
- viability, T/C (second compound 0.0316 µM, first compound 0.01 µM): 98.6%
- viability, T/C [1]: 88.2%
- viability, T/C [2]: 46.3%
- viability, T/C (second compound 0.1 µM, first compound 0.000316 µM): 109%
- viability, T/C (second compound 0.1 µM, first compound 0.001 µM): 101%
- viability, T/C (second compound 0.1 µM, first compound 0.00316 µM): 103%
- viability, T/C (second compound 0.1 µM, first compound 0.01 µM): 102%
- viability, T/C [7]: 90%
- viability, T/C [8]: 65.5%
- viability, T/C (second compound 0.316 µM, first compound 0.000316 µM): 110%
- viability, T/C (second compound 0.316 µM, first compound 0.001 µM): 104%
- viability, T/C (second compound 0.316 µM, first compound 0.00316 µM): 94.9%
- viability, T/C (second compound 0.316 µM, first compound 0.01 µM): 102%
- viability, T/C [13]: 87%
- viability, T/C [14]: 59.1%
- viability, T/C (second compound 1 µM, first compound 0.000316 µM): 104%
- viability, T/C (second compound 1 µM, first compound 0.001 µM): 99.5%
- viability, T/C (second compound 1 µM, first compound 0.00316 µM): 104%
- viability, T/C (second compound 1 µM, first compound 0.01 µM): 99.7%
- viability, T/C [19]: 86%
- viability, T/C [20]: 57.3%
- viability, T/C (second compound 3.16 µM, first compound 0.000316 µM): 108%
- viability, T/C (second compound 3.16 µM, first compound 0.001 µM): 102%
- viability, T/C (second compound 3.16 µM, first compound 0.00316 µM): 94.1%
- viability, T/C (second compound 3.16 µM, first compound 0.01 µM): 93%
- viability, T/C [25]: 77.1%
- viability, T/C [26]: 49.9%
- viability, T/C (second compound 10 µM, first compound 0.000316 µM): 101%
- viability, T/C (second compound 10 µM, first compound 0.001 µM): 99.2%
- viability, T/C (second compound 10 µM, first compound 0.00316 µM): 99.2%
- viability, T/C (second compound 10 µM, first compound 0.01 µM): 79.1%
- viability, T/C [31]: 68.3%
- viability, T/C [32]: 23.7%

Structure (SMILES): CC(C)n1c(=O)n(C)c2cnc3cc(F)c(-c4ccc(OCCCN5CCCCC5)nc4)cc3c21 + Cc1cccc(N(C)C(=O)C2C(O)CCN2c2nc(C)cc(C(F)(F)F)c2C#N)c1
- IC50 (second compound 0.0316 µM): > 10 µM
- IC50 (second compound 0.1 µM): > 10 µM
- IC50 (second compound 0.316 µM): > 10 µM
- IC50 (second compound 1 µM): > 10 µM
- IC50 (second compound 3.16 µM): > 10 µM
- IC50 (second compound 10 µM): > 10 µM
- viability, T/C [1]: 101%
- viability, T/C [2]: 99.8%
- viability, T/C [3]: 99.9%
- viability, T/C [4]: 106%
- viability, T/C [5]: 97.4%
- viability, T/C [6]: 66.9%
- viability, T/C [7]: 95.3%
- viability, T/C [8]: 108%
- viability, T/C [9]: 108%
- viability, T/C [10]: 97.9%
- viability, T/C [11]: 81.3%
- viability, T/C [12]: 74.4%
- viability, T/C [13]: 114%
- viability, T/C [14]: 109%
- viability, T/C [15]: 104%
- viability, T/C [16]: 102%
- viability, T/C [17]: 88.2%
- viability, T/C [18]: 77%
- viability, T/C [19]: 114%
- viability, T/C [20]: 112%
- viability, T/C [21]: 110%
- viability, T/C [22]: 99.7%
- viability, T/C [23]: 90.7%
- viability, T/C [24]: 68.9%
- viability, T/C [25]: 100%
- viability, T/C [26]: 109%
- viability, T/C [27]: 102%
- viability, T/C [28]: 90.8%
- viability, T/C [29]: 95.5%
- viability, T/C [30]: 80.3%
- viability, T/C [31]: 101%
- viability, T/C [32]: 104%
- viability, T/C [33]: 107%
- viability, T/C [34]: 92.4%
- viability, T/C [35]: 92.3%
- viability, T/C [36]: 70.5%
